Source: publication PMC11882969 (Nature Communications, 2025)
Several values for one entry are separate records, joined by “and”; a condition that tells them apart may be missing. Equal entries are not always repeated.

What was measured:
[1] = biological target: hCB1 (Homo sapiens, UniProt P21554); assay: Tango β-arrestin-2 recruitment, HTLA cells, CB1R; assay type: cell-based; parameters: expressed in transfected cells; host or cells: HTLA cells (gift of R. Axel), transient transfection
[2] = biological target: hCB2 (Homo sapiens, UniProt P34972); assay: TRUPATH BRET2 GoA dissociation, HEK293T; assay type: cell-based; parameters: expressed in transfected cells; host or cells: HEK293T cells (ATCC: CRL-3216), transient co-transfection; conditions: for functional response, concentration-response point (FigS7e, normalized): Log[drug], replicate columns
Sequence of hCB2 (P34972 whole entry): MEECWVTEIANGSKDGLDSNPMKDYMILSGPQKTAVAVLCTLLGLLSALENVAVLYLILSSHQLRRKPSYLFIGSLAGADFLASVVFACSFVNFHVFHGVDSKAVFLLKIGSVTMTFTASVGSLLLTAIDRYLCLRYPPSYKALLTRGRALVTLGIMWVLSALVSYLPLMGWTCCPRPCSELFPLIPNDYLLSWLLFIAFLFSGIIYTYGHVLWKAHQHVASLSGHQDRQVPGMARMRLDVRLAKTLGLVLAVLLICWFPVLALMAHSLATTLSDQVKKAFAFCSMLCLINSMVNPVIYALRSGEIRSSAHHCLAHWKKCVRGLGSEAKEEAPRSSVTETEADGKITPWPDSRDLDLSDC

Sequence of hCB1 (P21554 whole entry): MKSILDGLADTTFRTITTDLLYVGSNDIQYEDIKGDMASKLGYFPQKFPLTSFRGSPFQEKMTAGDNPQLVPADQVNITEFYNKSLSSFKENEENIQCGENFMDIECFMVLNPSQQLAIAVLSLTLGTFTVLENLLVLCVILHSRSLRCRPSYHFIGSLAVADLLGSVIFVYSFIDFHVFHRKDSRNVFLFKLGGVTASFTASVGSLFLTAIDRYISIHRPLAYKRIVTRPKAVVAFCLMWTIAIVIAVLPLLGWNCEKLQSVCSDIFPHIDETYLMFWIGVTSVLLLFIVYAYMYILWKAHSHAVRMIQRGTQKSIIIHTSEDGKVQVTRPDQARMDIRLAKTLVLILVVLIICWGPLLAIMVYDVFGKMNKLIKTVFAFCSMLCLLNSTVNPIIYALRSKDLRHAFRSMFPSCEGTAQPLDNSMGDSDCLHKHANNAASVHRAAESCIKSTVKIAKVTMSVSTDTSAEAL

COC(=O)[C@@H]1[C@@H]2CCC[C@@H]2CN1C(=O)c1cc(C)n(-c2cccc(C(F)(F)F)c2)n1 [‘6439]
response, replicate values of concentration-response curve (FigS7f) ([1]; Log[drug], M = -4.52): -10.8475 and 13.7559 and -1.3408 and 30.128 and 34.5335 and 23.984 and 49.6721 and 28.9692 and 37.5272
response, replicate values of concentration-response curve (FigS7f) ([1]; Log[drug], M = -5): 12.97 and -6.259 and -29.1004 and -18.7713 and 7.052 and 41.6727 and 31.5861 and -0.2412 and 17.8549 and 115.231 and 93.3593 and 69.1731
response, replicate values of concentration-response curve (FigS7f) ([1]; Log[drug], M = -5.52): -14.7516 and -1.011 and 3.958 and 21.4628 and 26.9697 and -2.702 and -24.3795 and -8.092 and 23.1695 and 55.5034 and 99.9754 and 83.8088
response at Log[drug], M -5.52 (FigS4e) ([1]; Log[drug], M = -5.52, individual replicates): 41.0598 and 42.1112 and 37.5809 and 36.0059 and 27.2068 and 23.0093 and 28.7041 and 23.0465 and 29.4359 and 31.2692 and 37.5598 and 31.3786
response, replicate values of concentration-response curve (FigS7f) ([1]; Log[drug], M = -6): -7.78 and 1.232 and -8.579 and 16.9776 and 8.83 and 54.3719 and -17.0743 and 6.68 and 7.903 and 46.3174 and 81.0931 and 82.3871
response at Log[drug], M -6 (FigS4e) ([1]; Log[drug], M = -6, individual replicates): 26.6779 and 28.882 and 31.009 and 30.2093 and 13.1731 and 19.3667 and 17.0092 and 18.0259 and 28.822 and 23.6752 and 23.7677 and 25.0376
response, replicate values of concentration-response curve (FigS7f) ([1]; Log[drug], M = -6.52): 6.949 and 23.0344 and 26.685 and -30.9662 and -12.5345 and 9.44 and -7.445 and 20.4415 and 28.8782 and 41.1229 and 58.9482 and 96.877
response at Log[drug], M -6.52 (FigS4e) ([1]; Log[drug], M = -6.52, individual replicates): 20.6989 and 18.775 and 18.227 and 14.6552 and 8.92 and 7.4713 and 4.648 and 5.829 and 9.707 and 10.7245 (2×) and 6.125
response, replicate values of concentration-response curve (FigS7f) ([1]; Log[drug], M = -7): 31.5144 and 45.4069 and -35.2101 and -37.1897 and 1.93 and 0.2842 and 7.478 and -20.5097 and -17.3775 and 49.0331 and 80.6374 and 65.8924
response at Log[drug], M -7 (FigS4e) ([1]; Log[drug], M = -7, individual replicates): 6.9232 and 8.043 and 10.8845 and 9.988 and 0.5556 and -1.865 and 0.4774 and 0.6189 and 2.467 and 3.148 and 2.635 and 4.207
response, replicate values of concentration-response curve (FigS7f) ([1]; Log[drug], M = -7.52): -4.763 and -11.0123 and 28.1301 and -8.049 and -20.0319 and -11.1013 and -22.9649 and -19.4286 and 2.9819 and 44.3307 and 18.8869 and 45.9893
response at Log[drug], M -7.52 (FigS4e) ([1]; Log[drug], M = -7.52, individual replicates): 6.822 and 6.684 and 9.44 and 7.52 and -3.124 and -0.9675 and -2.021 and -2.681 and -0.3421 and -0.05622 and 2.349 and 1.533
response at Log[drug], M -8 (FigS4e) ([1]; Log[drug], M = -8, individual replicates): 5.884 and 9.216 and 9.707 and 9.61 and -1.035 and -0.111 and -1.31 and -2.509 and 0.4231 and 1.197 and 7.663 and 1.289
response at Log[drug], M -8.52 (FigS4e) ([1]; Log[drug], M = -8.52, individual replicates): 12.6416 and 8.6666 and 7.701 and 11.5559 and 0.09453 and -1.259 and 2.111 and -1.3123 and 0.08722 and 0.8217 and 1.887 and 4.054
response at Log[drug], M -9 (FigS4e) ([1]; Log[drug], M = -9, individual replicates): 6.15 and 10.745 and 10.5633 and 11.2546 and -2.544 and -0.8488 and 0.7085 and -0.4422 and 2.383 and 3.898 and 2.695 and 3.787
response, replicate values of concentration-response curve (FigS7f) ([1]; Log[drug], M = -9.52): -11.8869 and 10.4349 and -26.9456 and -12.2027 and 18.9813 and -12.6008 and 11.5803
response at Log[drug], M -9.52 (FigS4e) ([1]; Log[drug], M = -9.52, individual replicates): 7.12 and 7.04 and 8.157 and 9.473 and -0.8081 and -1.207 and -0.4666 and -1.821 and 4.375 and 2.502 and 0.01377 and 0.5555
response, replicate values of concentration-response curve (FigS7f) ([1]; Log[drug], M = -10): 17.8121 and -5.27 and 8.977 and 22.6969 and 39.8414 and 41.3409 and 56.1992 and 5.841 and 17.8346 and -4.352 and 10.4482 and -28.6471
response at Log[drug], M -10 (FigS4e) ([1]; Log[drug], M = -10, individual replicates): 8.321 and 7.43 and 8.2855 and 10.5544 and 1.814 and -2.821 and -0.4869 and -0.1291 and 2.41 and 4.577 and 0.8034 and 1.18
response at Log[drug], M -10.52 (FigS4e) ([1]; Log[drug], M = -10.52, individual replicates): 8.25 and 8.706 and 9.026 and 10.1955 and -1.024 and 0.4442 and -0.6414 and 0.7573 and 1.648 and 0.8217 and 2.116 and 5.22
response at Log[drug], M -11 (FigS4e) ([1]; Log[drug], M = -11, individual replicates): 3.256 and 4.195 and 6.189 and 8.184 and 0.0864 and 0.615 and -0.08844 and -0.05998 and 3.273 and 3.861 and 4.338 and 1.74
response at Log[drug], M -11.52 (FigS4e) ([1]; Log[drug], M = -11.52, individual replicates): 5.192 and 4.514 and 4.754 and 3.593 and 1.237 and 0.5215 and -0.05998 and -1.081 and -0.5647 and 0.7391 and 0.6014 and 3.236
response at Log[drug], M -12 (FigS4e) ([1]; Log[drug], M = -12, individual replicates): 0.3534 and 0.1806 and 0.07866 and -0.6126 and -2.04 and 1.058 and -0.6333 and 1.615 and -1.51 and 0.6106 and 0.6473 and 0.2525
EC50 ([1]; hCB1, read-out: Tango ß-arrestin recruitment EC50): > 10 µM
EC50 [2]: 0.0971 µM
BRET2 + GoA Emax ([2]; % of CP-55,940): 81% [34 – 128]
functional response, concentration-response point (FigS7e, normalized) ([2]; M = -5): 12.9272 and 15.9912 and 13.3933 and 14.1917 and 9.02 and 8.9115 and 9.964 and 9.677 and 16.1327 and 18.1614 and 17.7797 and 17.4918
functional response, concentration-response point (FigS7e, normalized) ([2]; M = -5.52): 13.7946 and 14.1528 and 14.7009 and 15.5942 and 7.819 and 9.861 and 11.3112 and 10.248 and 13.5348 (2×) and 16.0255 and 15.2556
functional response, concentration-response point (FigS7e, normalized) ([2]; M = -6): 13.5098 and 11.3391 and 11.5247 and 10.1826 and 7.139 and 7.697 and 10.1371 and 9.4066 and 13.2838 and 11.7338 and 12.1556 and 10.2207
functional response, concentration-response point (FigS7e, normalized) ([2]; M = -6.52): 8.245 and 8.18 and 7.1316 and 8.582 and 5.652 and 4.45 and 4.542 and 4.824 and 8.731 and 6.786 and 7 and 7.151
functional response, concentration-response point (FigS7e, normalized) ([2]; M = -7): 3.477 and 2.251 and 1.336 and 1.824 and 2.04 and 2.129 and 1.242 and 0.8388 and 2.913 and 2.96 and 2.756 and 1.624
functional response, concentration-response point (FigS7e, normalized) ([2]; M = -7.52): 0.5378 and 0.2401 and 2.191 and 0.8701 and 1.326 and 0.4303 and 0.552 and 0.1165 and 1.032 and 0.8075 and 1.393 and 1.507
functional response, concentration-response point (FigS7e, normalized) ([2]; M = -8): 0.2919 and 0.01139 and 0.3868 and 0.4645 and -0.1973 and 0.3762 and 0.9064 and 1.539 and 0.3891 and 0.4427 and 0.6703 and 0.6301
functional response, concentration-response point (FigS7e, normalized) ([2]; M = -8.52): -0.3369 and -0.3039 and -0.3274 and -0.06361 and -0.07458 and 0.1558 and -0.006646 and 0.09378 and 0.05117 and 0.1425 and 0.3472 and 0.4422
functional response, concentration-response point (FigS7e, normalized) ([2]; M = -12): 0.6997 and -0.1013 and -0.3699 and -0.2285
